From US9345764B2, “Moesin modulators and uses thereof” (SHANGHAI KEXIN BIOTECH CO., LTD., priority 2010, dated 2016)

How the values were obtained:
HPMEC cells = experiment: Annexin V apoptosis assay (FITC/PI, flow cytometry); format: cell-based, human; details: agent alone, without combination partner
Procedure: Cell cultures in the presence of anti-moesin antibodies as described in Example 1 were subjected to apoptosis assay as well as surface antigen assay, to assess the antibody's effect on promoting endothelial cell apoptosis and on intercellular expression of moesin (indicating the active form of the protein).
Annexin V assay was used to study apoptosis. Collected cells were washed with PBS, centrifuged, and added sequentially with 70% ethanol, […] (200 mg/l) and PI (20 mg/l). Cells were then stained with Annexin-V FITC/PI kit for double staining of FITC and PI, because viable cells are both FITC and PI negative, while cells that are in early apoptosis are FITC positive but PI negative, and cells that are in late apoptosis or already dead are both FITC and PI positive. Stained cells are analyzed using a flow cytometer for amount of apoptotic cells in the presence of variant testing agents. The percentage of cells in early apoptosis and the percentage of cells in late apoptosis or dead cells after treatment with the test groups and the control group were determined and the results are shown in FIG. 4(a) and FIG. 4(b) respectively.

[1] = test system: human pulmonary microvascular endothelial cell line (HPMEC); experiment: Cell proliferation assay; format: cell-based; details: agent alone; compared with negative control (Group 6, PBS); FIG. 3
Procedure: Cell proliferation assay were performed using a human pulmonary microvascular endothelial cell line (HPMEC). Cells were plated in each well on a 6-well plate at 10^6 cells/cm^2, and cultured at […] in the presence of various testing and control reagents as described below. After culturing for a determined period of time, cells were collected and labeled for flow cytometry analysis. Proliferation rates at 2 hrs, 24 hrs and 36 hrs were determined by dividing the mean OD570 value from the tested groups with the mean OD570 value from the group having the same number of cells as the test groups at the beginning of the cell culturing.
Tested and control groups are as follows:
2) Antibody against full length moesin protein (anti-Moesin);
3) Antibody against the C-terminal tail domain only (anti-M3);
4) TNF-alpha+anti-Moesin;
6) PBS solution (negative control)

TNF-alpha
cell apoptosis (HPMEC cells): could induce cell apoptosis but the effect is not as much as it in combination with anti-moesin or anti-M3 | cell proliferation rates [1]: reduced cell proliferation rates but not as much as in combination with anti-moesin or anti-M3
